Experimental data taken from US20150089682A1, “ALS Inhibitor Herbicide Tolerant B. Napus Mutants” (priority 2012, published 2015).

Legend:
[1] = target: T1, mixture of P197S and W574L ALS enzymes (Arabidopsis thaliana, UniProt P17597); assay type: biochemical; conditions: for pI50 P197S & W574L: calculated for a mixture of equal activities of the two enzymes, pI50=3.0 used where measured <4; for Resistance Factor P197S & W574L: relative to WT, calculated
T1 construct: crude E. coli extract was used
Procedure: (§1) Assays were initiated by adding enzyme and terminated after 75 min incubation at 30° C. by the addition to 40 μl 0.5 M H2SO4. […] Reaction velocities were tiffed to the Michalis-Menten equation with the XLFit curve fitting program.
(§2) To characterize the response of a mixture of two different ALS enzymes to a given ALS inhibitor the following assumptions were made: • a inhibition is competitive and reversible • b. in the absence of inhibitor, equal activities of the ALS (mutant) enzymes 1 and 2 are present
(§3) Using experimentally determined pI50-values for various ALS-inhibiting herbicides, enzyme activities at different inhibitor concentrations were calculated (see Theory) for each ALS enzyme. Total ALS activity at any given inhibitor concentration is the sum of the activity of (mutant) enzyme 1 and (mutant) enzyme 2. If the experimentally determined pI50-value was <4, pI50=3.0 was used for the calculations. If the calculated pI50-value was 3.0, the pI50 was redefined as <4.

[2] = target: T2, mixture of S653N and W574L ALS enzymes (Arabidopsis thaliana, UniProt P17597); assay type: biochemical; conditions: for pI50 S653N & W574L: calculated for a mixture of equal activities of the two enzymes, pI50=3.0 used where measured <4; for Resistance Factor S653N & W574L: relative to WT, calculated
T2 construct: crude E. coli extract was used
Procedure: as §1, §2, §3

[3] = target: T3, Arabidopsis thaliana W574L-mutant ALS (Arabidopsis thaliana, UniProt P17597, E575Q/W574L); experiment: biochemical; conditions: for IC50: read-out: pI50 W574L (converted); for Resistance Factor W574L: relative to WT, from measured pI50
T3 construct: vector-encoded N-terminal fusion of pET-32a(+) (Trx/His/S tag by own knowledge); made in house; host or cells: Escherichia coli AD494
Procedure: (§4) Bacteria were grown at 37° C. in LB-medium containing 100 mg/1 carbenicillin and 25 mg/1 canamycin, induced with 1 mM isopropyl-β-D-thiogalactopyranoside at an OD600 of 0.6, cultivated for 16 hours at 18° C. and harvested by centrifugation. Bacterial pellets were resusupended in 100 mM sodium phosphate buffer pH 7.0 containing 0.1 mM thiamine-pyrophosphate, 1 mM MgCl2, and 1 μM FAD at a concentration of 1 gram wet weight per 25 ml of buffer and disrupted by sonification. The crude protein extract obtained after centrifugation was used for ALS activity measurements.
as §1

[4] = target: T4, Arabidopsis thaliana wild-type ALS (Arabidopsis thaliana, UniProt P17597, E575Q); experiment: biochemical; conditions: measured, crude extract of E. coli expressed enzyme; for IC50: read-out: pI50 WT (converted)
T4 construct: vector-encoded N-terminal fusion of pET-32a(+) (Trx/His/S tag by own knowledge); made in house; host or cells: Escherichia coli AD494
Procedure: as §4, §1

[5] = target: T5, Arabidopsis thaliana P197S-mutant ALS (Arabidopsis thaliana, UniProt P17597, E575Q/P197S); experiment: biochemical; conditions: for IC50: read-out: pI50 P197S (converted); for Resistance Factor P197S: relative to WT, from measured pI50
T5 construct: vector-encoded N-terminal fusion of pET-32a(+) (Trx/His/S tag by own knowledge); made in house; host or cells: Escherichia coli AD494
Procedure: as §4, §1

[6] = target: T6, Arabidopsis thaliana S653N-mutant ALS (Arabidopsis thaliana, UniProt P17597, E575Q/S653N); experiment: biochemical; conditions: for IC50: read-out: pI50 S653N (converted); for Resistance Factor S653N: relative to WT, from measured pI50
T6 construct: vector-encoded N-terminal fusion of pET-32a(+) (Trx/His/S tag by own knowledge); made in house; host or cells: Escherichia coli AD494
Procedure: as §4, §1

[7] = test system: spring oilseed rape variety ABILITY; experiment: Herbicide tolerance in the field, visible phytotoxicity; assay type: in vivo, Brassica napus; conditions: ABILITY, field, 18 days after application, 0%=no phytotoxic effects, 100%=all plants killed; for pest or weed control at 30 g/ha: AI dose rate 30 gai/ha
Text: (§5) Seeds of spring oilseed rape homozygous for HETO108 and HETO121 were sown in a field according to typical practical agricultural methods. The registered spring oilseed rape variety ABILITY served as a comparison. All plants were cultivated up to BBCH stage 14 (four true leaves of the oilseed rape plants). Afterwards, the herbicides mentioned in table 2 have been applied to the oilseed rape plants by using specific spray equipment for small plot applications. The water amount used was 200 L/ha.

[8] = test system: spring oilseed rape homozygous for HETO108 and HETO121; experiment: as above; assay type: in vivo, Brassica napus; conditions: HETO108-HETO121, field, 18 days after application, 0%=no phytotoxic effects, 100%=all plants killed; for pest or weed control at 30 g/ha: AI dose rate 30 gai/ha
Text: as §5

[9] = Kinetic parameters of enzymatic activity of AHAS mutants; assay type: biochemical, Arabidopsis thaliana; conditions: pyruvate varied 0-120 mM
Procedure: as §4, with “The coding sequences of the Arabidopsis thaliana wild-type and P197S-, W574L-, and S653N-mutant ALS genes were cloned into Novagen pET-32a(+) vectors and the vectors transformed into Escherichia coli AD494 according to the instructions of the manufacturer. Bacteria were” for “Bacteria were”
ALS assays were carried out in 96-well microtiter plates using a modification of the procedure described by Ray (1984), Plant Physiol 75:827-831. The reation mixture contained 20 mM potassium phosphate buffer pH 7.0, 20 mM sodium pyruvate, 0.45 mM thiamine-pyrophosphate, 0.45 mM MgCl2, 9 μM FAD, ALS enzyme and various concentrations of ALS inhibitors in a final volume of 90 μl. Assays were initiated by adding enzyme and terminated after 75 min incubation at 30° C. by the addition to 40 μl 0.5 M H2SO4. […] The pI50 values measured for the different mutant AHAS proteins and calculated for the mixtures of two different AHAS enzymes are shown in Table 3. […] Reaction velocities were tiffed to the Michalis-Menten equation with the XLFit curve fitting program.

[10] = measured, crude extract of E. coli expressed enzyme
[11] = Brassica napus, topical, 432 h, read-out: % phytotox
[12] = Brassica napus, topical, 432 h, AI dose rate 50 gai/ha, read-out: % phytotox
[13] = Brassica napus, topical, 432 h, AI dose rate 5 gai/ha, read-out: % phytotox
[14] = Brassica napus, topical, 432 h, AI dose rate 60 gai/ha, read-out: % phytotox

Molecule	pI50 P197S & W574L [1]	Resistance Factor P197S & W574L [1]	pI50 S653N & W574L [2]	Resistance Factor S653N & W574L [2]	IC50 [3, 10] [nM]	Resistance Factor W574L [3]	IC50 [4] [nM]	IC50 [5, 10] [nM]	Resistance Factor P197S [5]	IC50 [6, 10] [nM]	Resistance Factor S653N [6]	other results
COc1cc(OC)n2nc(S(=O)(=O)Nc3c(Cl)ccc(C)c3Cl)nc2n1 [Metosulam, metosulam]	5.2	2512	6.4	158	20000	7943	2.51	1580	631	6.31	3	pest or weed control at 30 g/ha [7, 11]: 100%; pest or weed control at 30 g/ha [8, 11]: 35%
COc1cc(OC)nc(NC(=O)NS(=O)(=O)N(C)S(C)(=O)=O)n1 [Amidosulfuron, amidosulfuron]	<4	>501	5.6	13	> 100000	>501	200	> 100000	>501	7.94	0	pest or weed control at 30 g/ha [7, 11]: 98%; pest or weed control at 30 g/ha [8, 11]: 3%
COc1cc(OC)nc(NC(=O)NS(=O)(=O)c2ncccc2C(F)(F)F)n1 [Flazasulfuron, flazasulfuron]	6.2	794	7.5	40	3160	3981	0.794	100	126	0.316	0	pest or weed control at 50 g/ha [7, 12]: 100%; pest or weed control at 50 g/ha [8, 12]: 80%
COC(=O)c1sccc1S(=O)(=O)NC(=O)Nc1nc(C)nc(OC)n1 [Thifensulfuron-Methyl, thifensulfuron-methyl]	4.6	631	5.4	100	63100	1585	39.8	7940	200	200	5	pest or weed control at 5 g/ha [7, 13]: 85%; pest or weed control at 5 g/ha [8, 13]: 0%
COc1cc(OC)n2nc(NS(=O)(=O)c3c(C(F)(F)F)ccnc3OC)nc2n1 [Pyroxsulam, pyroxsulam]	4.8	6310	5.3	1995		>39810			251		63	pI50 W574L [3, 10]: <4; pI50 WT [4]: 8.6; pI50 P197S [5, 10]: 6.2; pI50 S653N [6, 10]: 6.8; % phytotox ([7]; AI dose rate 50 gai/ha): 99%; % phytotox ([8]; AI dose rate 50 gai/ha): 0%
COc1cc(OC)nc(NC(=O)NS(=O)(=O)c2ncccc2C(=O)N(C)C)n1 [Nicosulfuron, nicosulfuron]	4.5	251	4.3	398	> 100000	>794	126	1000	8	2510	20	pest or weed control at 60 g/ha [7, 14]: 100%; pest or weed control at 60 g/ha [8, 14]: 55%
Wild-type: Arabidopsis thaliana wild-type ALS expressed in Escherichia coli, crude protein extract (protein, UniProt P17597 56-670, looked up) Acetolactate synthase, …: SSSPSSISAVLNTTTNVTTTPSPTKPTKPETFISRFAPDQPRKGADILVEALERQGVETVFAYPGGASMEIHQALTRSSSIRNVLPRHEQGGVFAAEGYARSSGKPGICIATSGPGATNLVSGLADALLDSVPLVAITGQVPRRMIGTDAFQETPIVEVTRSITKHNYLVMDVEDIPRIIEEAFFLATSGRPGPVLVDVPKDIQQQLAIPNWEQAMRLPGYMSRMPKPPEDSHLEQIVRLISESKKPVLYVGGGCLNSSDELGRFVELTGIPVASTLMGLGSYPCDDELSLHMLGMHGTVYANYAVEHSDLLLAFGVRFDDRVTGKLEAFASRAKIVHIDIDSAEIGKNKTPHVSVCGDVKLALQGMNKVLENRAEELKLDFGVWRNELNVQKQKFPLSFKTFGEAIPPQYAIKVLDELTDGKAIISTGVGQHQMWAAQFYNYKKPRQWLSSGGLGAMGFGLPAAIGASVANPDAIVVDIDGDGSFIMNVQELATIRVENLPVKVLLLNNQHLGMVMQWEDRFYKANRAHTFLGDPAQEDEIFPNMLLFAAACGIPAARVTKKADLREAIQTMLDTPGPYLLDVICPHQEHVLPMIPSGGTFNDVITEGDGRIKY												Km [9]: 2100 ± 100 µM; Vmax [9]: 42.7 ± 1.3 ΔE/min mg
